Laboratory results from patent US3991202A, “Imidazolium salts” (Janssen Pharmaceutica N.V., priority 1974, dated 1976).
Where two headings read alike, the source gives them in different places.

What was measured:
Format in all cases: cell-based
Erysipelothrix insidiosa = test: Antibacterial growth inhibition in phenol red dextrose broth; details: Erysipelothrix rhusiopathiae, 168 h; E. ins.; tested at 100, 10, 1 μg/ml; read-out: Concentration in μ g for 100% Growth Inhibition
Description: (§1) The tests on bacteria were performed on cultures on phenol red dextrose broth medium (Difco). By using decimal dilution techniques described for the tests for antifungal activity, test media containing 100 μg, 10 μg and 1 μg of imidazolium salt per milliliter of medium were obtained. The inoculum consisted of a platinum loop (5 mm diameter) from a 24 hour broth culture. Forty-eight hours after incubation, subcultures were made from each culture for the determination of antibacterial activity of the imidazolium salts. After seven days of incubation, observations were made to determine the presence or absence of bacterial growth.

Escherichia coli = test: as above; details: 168 h, E. coli, tested at 100, 10, 1 μg/ml, read-out: Concentration in μ g for 100% Growth Inhibition
Description: as §1

Pseudomonas aeruginosa = test: as above; details: 168 h, Ps. aer., read-out: Concentration in μ g for 100% Growth Inhibition
Description: as §1

[1] = tested on: Salmonella pullorum gallinarum; test: as above; details: Salmonella enterica, 168 h; Sp. G.; tested at 100, 10, 1 μg/ml; read-out: Concentration in μ g for 100% Growth Inhibition
Description: as §1

[2] = tested on: Staphylococcus hemolyticus; test: as above; details: 168 h, Staph., tested at 100, 10, 1 μg/ml, read-out: Concentration in μ g for 100% Growth Inhibition
Description: as §1

Streptococcus pyogenes = test: as above; details: 168 h, Strep., tested at 100, 10, 1 μg/ml, read-out: Concentration in μ g for 100% Growth Inhibition
Description: as §1

Cryptococcus neoformans = test: Antifungal growth inhibition in Sabouraud's liquid medium; details: Cryptococcus neoformans, 336 h; Cr.n.; tested at 100, 10, 1 μg/ml; read-out: Concentrations in μg/ml for 100% Inhibition of Growth
Description: (§2) Tests for the control of fungal organisms were performed using Sabouraud's liquid medium (1 g. of neopeptone Difco and 2 g. of glucose Difco per 100 ml. distilled water) in test tubes, each containing 4.5 ml. of liquid medium, autoclaved at 120° C for 15 minutes. The imidazolium salts were prepared for testing by dissolving in 50% ethanol to a concentration of 20 mg./ml. and thereafter diluting with sterile distilled water to obtain a concentration of 10 mg./ml. Successive decimal dilutions were then made with sterile distilled water to prepare a series of test solutions. In carrying out the test, 0.5 ml. of one of the test solutions is added to 4.5 ml. of Sabouraud's liquid medium to obtain a test medium. In this manner, from appropriate test solution, test media containing 100 μg, 10 μg and 1 μg of imidazolium salt per milliliter of medium were obtained.
(§3) Control tubes were prepared by adding 0.5 ml. of sterile distilled water to 4.5 ml. of medium. Ethanol was also added to simulate the amount which would be present in the test media. Filamentous fungi were incubated at 25° C for two to three weeks. A square block of side 2 mm. was excised and inoculated into the liquid medium. A 3-day old culture on Sabouraud's liquid medium was used for yeasts. The inoculum was 0.05 ml. per tube. All cultures were incubated at 25° C for 14 days.

[3] = tested on: Ctenomyces mentagrophytes; test: as above; details: Trichophyton mentagrophytes, 336 h; Ct.m.; tested at 100, 10, 1 μg/ml; read-out: Concentrations in μg/ml for 100% Inhibition of Growth
Description: as §2, §3

Microsporum canis = test: as above; details: Microsporum canis, 336 h; M.c.; tested at 100, 10, 1 μg/ml; read-out: Concentrations in μg/ml for 100% Inhibition of Growth
Description: as §2, §3

Trichophyton rubrum = test: as above; details: Trichophyton rubrum, 336 h; Tr.r.; tested at 100, 10, 1 μg/ml; read-out: Concentrations in μg/ml for 100% Inhibition of Growth
Description: as §2, §3

Row | SMILES | MIC (Erysipelothrix insidiosa) | MIC (Escherichia coli) | MIC (Pseudomonas aeruginosa; tested at 100, 10, 1 μg/ml) | MIC [1] | MIC (Streptococcus pyogenes) | MIC (Pseudomonas aeruginosa; growth observed at 100 μg/ml) | MIC (Cryptococcus neoformans) | MIC [3] | MIC (Microsporum canis) | MIC (Trichophyton rubrum) | MIC [2]
1 | O=C(C[n+]1ccn(CC(OCc2ccc(Cl)cc2Cl)c2ccc(Cl)cc2Cl)c1)Nc1ccc(F)cc1 (stereo not drawn) [CH2CONHC6H4pF, 1-[2,4-dichloro-β-(2,4-dichlorobenzyloxy)phenethyl]-3-[N-(p-fluorophenyl)carbamoylmethyl]imidazolium chloride] | 1 µg/mL | 10 µg/mL | 100 µg/mL | 10 µg/mL | 1 µg/mL | – | – | – | – | – | 1 µg/mL
2 | CC(C(=O)Nc1cccc(Cl)c1)[n+]1ccn(CC(OCc2ccc(Cl)cc2Cl)c2ccc(Cl)cc2Cl)c1 (stereo not drawn) [CH(CH3)CONHC6H4mCl, 1-{1-[N-(m-Chlorophenyl)carbamoyl]ethyl 56-3-[2,4-dichloro-β-(2,4-dichlorobenzyloxy)phenethyl]imidazolium bromide] | 1 µg/mL | 100 µg/mL | 100 µg/mL | 100 µg/mL | 1 µg/mL | – | – | – | – | – | 1 µg/mL
3 | Clc1ccc(COC(C[n+]2ccn(Cc3ccccc3)c2)c2ccccc2)cc1.[Br-] (stereo not drawn) [C6H5/CH2C6H4pCl/CH2C6H5, 1-Benzyl-3-[β-(p-chlorobenzyloxy)phenethyl]imidazolium bromide] | 100 µg/mL | 100 µg/mL | – | 100 µg/mL | 10 µg/mL | > 100 µg/mL | – | – | – | – | 10 µg/mL
4 | Cc1ccc(CNC(=O)C[n+]2ccn(CC(OCc3ccc(Cl)cc3Cl)c3ccc(Cl)cc3Cl)c2)cc1 (stereo not drawn) [CH2CONHCH2C6H4pCH3, 1-[2,4-Dichloro-β-(2,4-dichlorobenzyloxy)phenethyl]-3-[N-(p-methylbenzyl)carbamoylmethyl]imidazolium chloride] | 10 µg/mL | 10 µg/mL | 100 µg/mL | 10 µg/mL | 10 µg/mL | – | – | – | – | – | 10 µg/mL
5 | OC(Cn1cc[n+](CC(OCc2ccc(Cl)cc2Cl)c2ccc(Cl)cc2Cl)c1)c1ccc(Cl)cc1.[Br-] (stereo not drawn) [CH2CHOHC6H4pCl, 1-(p-chloro-β-hydroxyphenethyl)-3-[2,4-dichloro-β-(2,4-dichlorobenzyloxy)phenethyl]imidazolium bromide] | 1 µg/mL | 10 µg/mL | 100 µg/mL | 10 µg/mL | 1 µg/mL | – | – | – | – | – | 1 µg/mL
6 | Fc1ccc(C(c2ccc(Cl)cc2)[n+]2ccn(CC(OCc3ccc(Cl)cc3Cl)c3ccc(Cl)cc3Cl)c2)cc1 (centres unmarked) [drawing 61] | – | – | – | – | – | – | 100 µg/mL | 10 µg/mL | 10 µg/mL | 1 µg/mL | –
7 | Cc1cccc(C)c1OCC[n+]1ccn(CC(OCc2ccc(Cl)cc2Cl)c2ccc(Cl)cc2Cl)c1.[Br-] (stereo not drawn) [(CH2)2OC6H32,6(CH3)2, 1-[2,4-Dichloro-β-(2,4-dichlorobenzyloxy)phenethyl]-3-[2-(2,6-xylyloxy)ethyl]imidazolium bromide] | – | – | – | – | – | – | 1 µg/mL | 1 µg/mL | 10 µg/mL | 10 µg/mL | –
8 | O=C(C[n+]1ccn(CC(OCc2ccc(Cl)cc2Cl)c2ccc(Cl)cc2Cl)c1)NCc1ccccc1Cl (centres unmarked) [CH2CONHCH2C6H4oCl, 1-[N-(o-Chlorobenzyl)carbamoylmethyl]3-[2,4-dichloroβ-(2,4-dichlorobenzyloxy)phenethyl]imidazolium chloride] | – | – | – | – | – | – | 100 µg/mL | 10 µg/mL | 1 µg/mL | 1 µg/mL | –
9 | CCCCOC(Cn1cc[n+](CC(=O)Nc2ccc(F)cc2)c1)c1ccc(Cl)cc1Cl (stereo not drawn) [2,4(Cl)2C6H3/nC4H9/CH2CONHC6H4pF, 1-(β-Butoxy-2,4-dichlorophenethyl)-3-[N-(p-fluorophenyl)carbamoylmethyl]imidazolium chloride] | – | – | – | – | – | – | 100 µg/mL | 10 µg/mL | 10 µg/mL | 10 µg/mL | –
10 | O=C(C[n+]1ccn(CC(OCc2ccc(Cl)cc2Cl)c2ccc(Cl)cc2Cl)c1)c1cccs1 (centres unmarked) | – | – | – | – | – | – | 10 µg/mL | 1 µg/mL | 10 µg/mL | 1 µg/mL | –
11 | COc1cccc(NC(=O)C[n+]2ccn(CC(OCc3ccc(Cl)cc3Cl)c3ccc(Cl)cc3Cl)c2)c1 (centres unmarked) [CH2CONHC6H4m(OCH3), hydrate] | – | – | – | – | – | – | 10 µg/mL | 10 µg/mL | 10 µg/mL | 1 µg/mL | –
12 | O=C(Cn1cc[n+](CC(OCc2ccc(Cl)cc2Cl)c2ccc(Cl)cc2Cl)c1)c1ccc(Br)cc1.[Cl-] (stereo not drawn) [CH2COC6H4pBr, 1-(p-bromobenzoylmethyl)-3-[2,4-dichloro-β-(2,4-dichlorobenzyloxy)phenethyl]imidazolium chloride] | – | – | – | – | – | – | 1 µg/mL | 1 µg/mL | 10 µg/mL | 1 µg/mL | –
13 | O=C(C[n+]1ccn(CC(OCc2ccc(Cl)cc2)c2ccc(Cl)cc2Cl)c1)c1ccc(F)cc1 (centres unmarked) [2,4(Cl)2C6H3/drawing 65/CH2COC6H4pF] | – | – | – | – | – | – | 10 µg/mL | 1 µg/mL | 1 µg/mL | 1 µg/mL | –

Continued, in another order:

Row | MIC (Erysipelothrix insidiosa) | MIC (Escherichia coli) | MIC (Pseudomonas aeruginosa; tested at 100, 10, 1 μg/ml) | MIC [1] | MIC (Streptococcus pyogenes) | MIC (Pseudomonas aeruginosa; growth observed at 100 μg/ml) | MIC (Cryptococcus neoformans) | MIC [3] | MIC (Microsporum canis) | MIC (Trichophyton rubrum) | SMILES | MIC [2]
14 | 10 µg/mL | 100 µg/mL | 100 µg/mL | 10 µg/mL | 1 µg/mL | – | – | – | – | – | Cc1ccccc1NC(=O)C[n+]1ccn(CC(OCc2c(Cl)cccc2Cl)c2ccc(Cl)cc2Cl)c1 (stereo not drawn) [1-[2,4-dichloro-β-(2,6-dichlorobenzyloxy)phenethyl]-3-(N-o-tolylcarbamoylmethyl)imidazolium chloride] | 10 µg/mL
15 | 1 µg/mL | 10 µg/mL | 100 µg/mL | 10 µg/mL | 1 µg/mL | – | – | – | – | – | O=C(C[n+]1ccn(CC(OCc2ccc(Cl)cc2Cl)c2ccc(Cl)cc2)c1)Nc1ccc(F)cc1 (stereo not drawn) [C6H4pCl/CH2C6H32,4(Cl)2/CH2CONHC6H4pF, 1-[p-chloro-β-(2,4-dichlorobenzyloxy)phenethyl]-3-[N-(p-fluorophenyl)carbamoyl-methyl]imidazolium chloride] | 10 µg/mL
16 | – | – | – | – | – | – | 10 µg/mL | 10 µg/mL | 10 µg/mL | 1 µg/mL | O=C(C[n+]1ccn(CC(OCc2ccc(Cl)cc2Cl)c2ccc(Cl)cc2Cl)c1)Nc1ccccc1Cl (stereo not drawn) [CH2CONHC6H4oCl, 1-[N-(o-chlorophenyl)carbamoylmethyl]-3-[2,4-dichloro-β-(2,4-dichlorobenzyloxy)phenethyl]imidazolium chloride] | –
17 | – | – | – | – | – | – | 100 µg/mL | 1 µg/mL | 10 µg/mL | 1 µg/mL | O=C(CC[n+]1ccn(CC(OCc2ccc(Cl)cc2Cl)c2ccc(Cl)cc2Cl)c1)Nc1ccccc1[N+](=O)[O-].[Cl-] (stereo not drawn) [(CH2)2CONHC6H4oNO2, 1-[2,4-Dichloro-β-(2,4-dichlorobenzyloxy)-phenethyl]-3-{2-[N-(o-nitrophenyl)carbamoyl]ethyl}imidazolium chloride] | –
18 | – | – | – | – | – | – | 1 µg/mL | 10 µg/mL | 10 µg/mL | 10 µg/mL | Clc1ccc(COC(Cn2cc[n+](CCOc3ccc4ccccc4c3)c2)c2ccc(Cl)cc2Cl)c(Cl)c1.O.[Br-] (stereo not drawn) [(CH2)2OC10H7, 1-[2,4-Dichloro-β-(2,4-dichlorobenzyloxy)phenethyl]3-[2-(2-naphthyloxy)ethyl]imidazolium bromide hydrate] | –
19 | – | – | – | – | – | – | 100 µg/mL | 10 µg/mL | 10 µg/mL | 10 µg/mL | Clc1ccc(COC(Cn2cc[n+](CCCOc3ccc4ccccc4c3)c2)c2ccc(Cl)cc2Cl)c(Cl)c1.O.[Cl-] (stereo not drawn) [(CH2)3OC10H7, 1-[2,4-Dichloro-β-(2,4-dichlorobenzyloxy)phenethyl]-3-[3-(2-naphthyloxy)propyl]imidazolium chloride hydrate] | –
20 | – | – | – | – | – | – | 10 µg/mL | 1 µg/mL | 10 µg/mL | 1 µg/mL | OC(C[n+]1ccn(CC(OCc2ccc(Cl)cc2Cl)c2ccc(Cl)cc2Cl)c1)c1ccc(Cl)cc1 (centres unmarked) | –
21 | – | – | – | – | – | – | 10 µg/mL | 1 µg/mL | 1 µg/mL | 1 µg/mL | O=C(C[n+]1ccn(CC(OCc2ccc(Cl)cc2Cl)c2ccc(Cl)cc2Cl)c1)c1ccc(Cl)s1 (centres unmarked) | –
